Assay [1] addresses T1, RmHR (Rubricoccus marinus halorhodopsin) (Rubricoccus marinus, UniProt A0A259U296). Put plainly: biochemical. Further details: gene BSZ36_14690.
Assay [2] deals with T1, RmHR (Rubricoccus marinus halorhodopsin). Kind of assay: normal-phase HPLC of extracted retinal oxime. Format: binding. Also on record: gene BSZ36_14690; full-length codon-optimised synthetic gene in pET21a, C-terminal His6; expressed in E. coli, DDM-solubilised, purified. To be noted: covalent (Schiff base); 1 M NaCl, 25°C, dark or illuminated at 540 nm; retinal supplied during expression.

The values below come from paper PMC5877348, “Presence of a Haloarchaeal Halorhodopsin-Like Cl^− Pump in Marine Bacteria” (Microbes and Environments, 2018).

The term Kd denotes the equilibrium constant for the complex coming apart. Low values mean tighter binding, high ones weaker binding.

T1 sequence (A0A259U296 entry or part of it): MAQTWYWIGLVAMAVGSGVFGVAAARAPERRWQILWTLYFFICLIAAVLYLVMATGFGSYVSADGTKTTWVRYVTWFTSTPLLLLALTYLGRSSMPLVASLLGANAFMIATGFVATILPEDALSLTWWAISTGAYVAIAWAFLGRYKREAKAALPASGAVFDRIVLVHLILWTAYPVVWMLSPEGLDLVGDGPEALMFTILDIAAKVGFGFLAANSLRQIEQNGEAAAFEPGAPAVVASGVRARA

In assay [1], `Cl` [Cl^−] registered a dissociation constant (Kd) of 7.6 ± 1.7 mM.
As for `CC1=C(/C=C/C(C)=C/C=C/C(C)=C/C=O)C(C)(C)CCC1` [all-trans-retinal], the “normal-phase HPLC of extracted retinal oxime” value in assay [2] is on record as “RmHR predominantly possesses all-trans retinal as a chromophore”.
